We go through two compounds from paper PMC8213057, “Targeting ALK2: An Open Science Approach to Developing Therapeutics for the Treatment of Diffuse Intrinsic Pontine Glioma” (Journal of Medicinal Chemistry, 2020).

In one experiment the target is MAPKAPK2 (Homo sapiens, UniProt P49137). The experiment can be described thus: biochemical. The following applies: read-out: % enzyme activity, 1 μM; Run 1, Run 2.
A further experiment deals with T1, PKG1b (Homo sapiens, UniProt Q13976).
T1 sequence (Q13976 1-686 isoform Q13976-2): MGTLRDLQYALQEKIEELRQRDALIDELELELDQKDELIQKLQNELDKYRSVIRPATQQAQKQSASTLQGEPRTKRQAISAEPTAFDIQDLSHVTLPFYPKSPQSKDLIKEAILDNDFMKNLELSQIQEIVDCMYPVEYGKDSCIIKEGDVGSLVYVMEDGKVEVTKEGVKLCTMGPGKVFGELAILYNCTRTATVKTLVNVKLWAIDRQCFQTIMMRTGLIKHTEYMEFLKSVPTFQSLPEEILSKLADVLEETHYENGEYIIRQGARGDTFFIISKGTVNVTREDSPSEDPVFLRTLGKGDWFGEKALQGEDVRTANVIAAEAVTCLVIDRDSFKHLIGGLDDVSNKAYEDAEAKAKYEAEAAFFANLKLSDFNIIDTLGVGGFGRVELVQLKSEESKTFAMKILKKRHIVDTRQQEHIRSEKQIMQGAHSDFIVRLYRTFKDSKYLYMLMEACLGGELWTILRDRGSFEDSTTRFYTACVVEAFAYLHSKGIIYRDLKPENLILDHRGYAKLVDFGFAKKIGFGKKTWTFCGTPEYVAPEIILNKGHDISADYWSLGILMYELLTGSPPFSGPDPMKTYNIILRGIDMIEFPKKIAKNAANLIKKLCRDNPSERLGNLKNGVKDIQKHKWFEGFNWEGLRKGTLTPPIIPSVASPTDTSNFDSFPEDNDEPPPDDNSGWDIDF
The experiment can be described thus: biochemical. The following applies: read-out: % enzyme activity, 1 μM; Run 1, Run 2.

For a further experiment, the target named is EPHA5 (Homo sapiens, UniProt P54756). The following applies: 1 μM; Run 1, Run 2.
The target of a further experiment is T2, NEK2 (Homo sapiens, UniProt P51955).
T2 sequence (P51955 1-445): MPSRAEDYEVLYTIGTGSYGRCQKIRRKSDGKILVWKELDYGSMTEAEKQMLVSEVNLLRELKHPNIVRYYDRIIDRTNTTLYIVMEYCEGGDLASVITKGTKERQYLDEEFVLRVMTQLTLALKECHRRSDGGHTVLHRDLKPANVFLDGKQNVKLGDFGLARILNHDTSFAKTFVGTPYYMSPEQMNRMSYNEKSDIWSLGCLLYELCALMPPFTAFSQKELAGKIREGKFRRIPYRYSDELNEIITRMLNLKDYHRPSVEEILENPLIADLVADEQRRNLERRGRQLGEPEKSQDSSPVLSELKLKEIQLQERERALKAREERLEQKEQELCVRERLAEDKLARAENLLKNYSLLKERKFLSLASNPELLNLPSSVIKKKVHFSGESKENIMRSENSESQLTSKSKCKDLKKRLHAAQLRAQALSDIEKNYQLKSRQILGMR
The experiment can be described thus: biochemical. The following applies: read-out: % enzyme activity, 1 μM; Run 1, Run 2.

Another experiment deals with LYN (Homo sapiens, UniProt P07948). The following applies: 1 μM; Run 1, Run 2.
The target of the next experiment is CSK (Homo sapiens, UniProt P41240). The following applies: 1 μM; Run 1, Run 2.
The target of another experiment is MYO3A (Homo sapiens, UniProt Q8NEV4). The following applies: 1 μM; Run 1, Run 2.
The target in another experiment is T3, LCK2/ICK (Homo sapiens, UniProt Q9UPZ9).
T3 sequence (Q9UPZ9 1-632): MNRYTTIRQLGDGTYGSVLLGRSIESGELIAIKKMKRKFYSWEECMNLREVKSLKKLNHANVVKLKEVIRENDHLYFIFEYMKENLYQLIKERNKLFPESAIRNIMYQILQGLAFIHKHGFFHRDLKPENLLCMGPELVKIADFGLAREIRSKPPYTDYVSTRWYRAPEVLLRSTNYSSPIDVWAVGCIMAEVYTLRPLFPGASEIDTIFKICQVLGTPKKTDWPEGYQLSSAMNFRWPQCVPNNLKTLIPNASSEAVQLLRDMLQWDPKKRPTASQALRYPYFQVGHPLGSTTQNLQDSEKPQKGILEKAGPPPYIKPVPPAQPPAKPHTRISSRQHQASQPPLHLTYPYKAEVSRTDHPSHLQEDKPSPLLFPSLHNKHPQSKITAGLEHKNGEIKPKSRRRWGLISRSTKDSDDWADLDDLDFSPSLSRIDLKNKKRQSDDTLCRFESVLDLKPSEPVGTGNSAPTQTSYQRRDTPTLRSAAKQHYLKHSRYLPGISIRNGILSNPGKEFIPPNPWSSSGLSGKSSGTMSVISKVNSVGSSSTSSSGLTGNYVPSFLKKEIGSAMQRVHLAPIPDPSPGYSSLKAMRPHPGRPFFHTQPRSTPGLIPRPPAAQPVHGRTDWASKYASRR
Briefly: biochemical. The following applies: read-out: % enzyme activity, 1 μM; Run 1, Run 2.

Another experiment has as its target PHKg1 (Homo sapiens, UniProt Q16816). The following applies: 1 μM; Run 1, Run 2.
In a further experiment the target is c-MET (Homo sapiens, UniProt P08581). The following applies: 1 μM; Run 1, Run 2.
The next experiment has as its target T4, TBK1 (Homo sapiens, UniProt Q9UHD2).
T4 sequence (Q9UHD2 1-729): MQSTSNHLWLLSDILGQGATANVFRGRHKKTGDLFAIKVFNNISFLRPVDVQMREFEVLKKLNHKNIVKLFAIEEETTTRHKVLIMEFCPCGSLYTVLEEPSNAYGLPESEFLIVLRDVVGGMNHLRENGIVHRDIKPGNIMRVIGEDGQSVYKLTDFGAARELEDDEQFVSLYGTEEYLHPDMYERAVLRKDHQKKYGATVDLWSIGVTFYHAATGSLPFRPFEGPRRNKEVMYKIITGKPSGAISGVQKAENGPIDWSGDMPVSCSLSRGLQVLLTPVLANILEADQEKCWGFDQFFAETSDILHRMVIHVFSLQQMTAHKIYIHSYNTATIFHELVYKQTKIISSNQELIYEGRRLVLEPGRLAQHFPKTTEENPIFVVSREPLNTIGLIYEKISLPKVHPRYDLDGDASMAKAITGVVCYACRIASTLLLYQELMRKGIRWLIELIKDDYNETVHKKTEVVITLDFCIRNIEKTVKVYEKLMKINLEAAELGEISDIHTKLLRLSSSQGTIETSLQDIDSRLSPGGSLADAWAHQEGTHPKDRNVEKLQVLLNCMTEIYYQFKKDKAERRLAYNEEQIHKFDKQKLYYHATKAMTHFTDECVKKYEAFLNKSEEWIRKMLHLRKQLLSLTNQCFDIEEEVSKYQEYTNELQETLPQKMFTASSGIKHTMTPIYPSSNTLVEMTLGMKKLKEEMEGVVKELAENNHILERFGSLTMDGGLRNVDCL
The following applies: 1 μM; Run 1, Run 2.

Sequence of EPHA5 (P54756 25-1037): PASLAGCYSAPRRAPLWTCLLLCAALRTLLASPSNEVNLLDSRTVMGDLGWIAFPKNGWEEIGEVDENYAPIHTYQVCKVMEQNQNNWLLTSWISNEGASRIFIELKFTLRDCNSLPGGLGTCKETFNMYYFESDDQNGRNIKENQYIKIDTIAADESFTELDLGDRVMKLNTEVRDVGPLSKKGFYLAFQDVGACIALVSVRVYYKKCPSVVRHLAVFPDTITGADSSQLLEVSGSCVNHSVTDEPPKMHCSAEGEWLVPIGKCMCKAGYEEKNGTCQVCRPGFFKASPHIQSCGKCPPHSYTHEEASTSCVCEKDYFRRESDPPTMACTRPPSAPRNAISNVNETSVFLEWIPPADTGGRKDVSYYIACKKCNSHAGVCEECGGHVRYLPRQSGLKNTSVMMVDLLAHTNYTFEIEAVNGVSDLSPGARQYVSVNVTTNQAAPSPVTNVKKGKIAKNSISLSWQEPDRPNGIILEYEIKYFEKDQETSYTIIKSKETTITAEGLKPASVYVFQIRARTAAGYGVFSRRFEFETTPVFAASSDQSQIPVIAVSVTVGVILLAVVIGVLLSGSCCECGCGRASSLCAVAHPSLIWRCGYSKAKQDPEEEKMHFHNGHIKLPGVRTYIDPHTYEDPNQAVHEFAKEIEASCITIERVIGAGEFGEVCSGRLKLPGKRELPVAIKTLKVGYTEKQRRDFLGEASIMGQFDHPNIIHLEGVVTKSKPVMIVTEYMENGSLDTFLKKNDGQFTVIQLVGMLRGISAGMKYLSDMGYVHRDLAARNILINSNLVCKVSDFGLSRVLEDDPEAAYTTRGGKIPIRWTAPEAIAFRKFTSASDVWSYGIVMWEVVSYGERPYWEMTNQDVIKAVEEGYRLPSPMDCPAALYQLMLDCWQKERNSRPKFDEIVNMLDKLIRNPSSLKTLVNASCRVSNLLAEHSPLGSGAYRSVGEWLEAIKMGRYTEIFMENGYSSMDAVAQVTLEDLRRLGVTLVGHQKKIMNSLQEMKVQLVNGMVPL
Sequence of c-MET (P08581 25-1390): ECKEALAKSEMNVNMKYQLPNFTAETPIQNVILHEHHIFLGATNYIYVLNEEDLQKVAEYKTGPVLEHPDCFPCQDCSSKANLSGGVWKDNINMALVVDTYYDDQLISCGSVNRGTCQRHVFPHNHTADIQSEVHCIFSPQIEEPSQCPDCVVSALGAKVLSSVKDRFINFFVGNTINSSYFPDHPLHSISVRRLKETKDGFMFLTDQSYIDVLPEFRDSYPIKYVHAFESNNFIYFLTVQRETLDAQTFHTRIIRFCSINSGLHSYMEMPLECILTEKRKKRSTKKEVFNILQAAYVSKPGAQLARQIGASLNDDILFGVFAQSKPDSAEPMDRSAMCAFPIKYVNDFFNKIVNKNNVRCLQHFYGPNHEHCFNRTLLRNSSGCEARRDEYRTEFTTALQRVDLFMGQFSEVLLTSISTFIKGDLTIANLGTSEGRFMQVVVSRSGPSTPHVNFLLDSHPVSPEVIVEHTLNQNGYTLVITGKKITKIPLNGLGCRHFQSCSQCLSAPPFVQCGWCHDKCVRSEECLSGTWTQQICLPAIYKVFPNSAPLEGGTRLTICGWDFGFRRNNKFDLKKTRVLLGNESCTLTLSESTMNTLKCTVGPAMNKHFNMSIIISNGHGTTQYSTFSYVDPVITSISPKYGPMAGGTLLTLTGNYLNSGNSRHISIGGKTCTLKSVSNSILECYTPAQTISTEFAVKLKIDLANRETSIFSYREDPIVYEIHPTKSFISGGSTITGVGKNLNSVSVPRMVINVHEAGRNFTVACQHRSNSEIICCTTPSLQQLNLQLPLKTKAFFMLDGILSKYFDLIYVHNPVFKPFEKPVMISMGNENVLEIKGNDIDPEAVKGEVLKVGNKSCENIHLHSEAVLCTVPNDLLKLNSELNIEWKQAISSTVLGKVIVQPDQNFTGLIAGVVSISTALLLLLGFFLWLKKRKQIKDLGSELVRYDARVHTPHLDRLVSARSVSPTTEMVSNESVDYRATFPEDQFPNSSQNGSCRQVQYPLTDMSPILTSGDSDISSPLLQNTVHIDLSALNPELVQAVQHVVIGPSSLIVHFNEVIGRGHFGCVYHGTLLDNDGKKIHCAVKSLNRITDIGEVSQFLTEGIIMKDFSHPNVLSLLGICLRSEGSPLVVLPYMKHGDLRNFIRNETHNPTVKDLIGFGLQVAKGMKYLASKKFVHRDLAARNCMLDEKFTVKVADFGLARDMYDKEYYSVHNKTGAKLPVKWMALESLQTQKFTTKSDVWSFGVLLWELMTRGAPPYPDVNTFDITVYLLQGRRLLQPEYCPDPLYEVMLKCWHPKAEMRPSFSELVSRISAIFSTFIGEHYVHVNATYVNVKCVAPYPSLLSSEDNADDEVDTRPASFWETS
Sequence of MYO3A (Q8NEV4 whole entry): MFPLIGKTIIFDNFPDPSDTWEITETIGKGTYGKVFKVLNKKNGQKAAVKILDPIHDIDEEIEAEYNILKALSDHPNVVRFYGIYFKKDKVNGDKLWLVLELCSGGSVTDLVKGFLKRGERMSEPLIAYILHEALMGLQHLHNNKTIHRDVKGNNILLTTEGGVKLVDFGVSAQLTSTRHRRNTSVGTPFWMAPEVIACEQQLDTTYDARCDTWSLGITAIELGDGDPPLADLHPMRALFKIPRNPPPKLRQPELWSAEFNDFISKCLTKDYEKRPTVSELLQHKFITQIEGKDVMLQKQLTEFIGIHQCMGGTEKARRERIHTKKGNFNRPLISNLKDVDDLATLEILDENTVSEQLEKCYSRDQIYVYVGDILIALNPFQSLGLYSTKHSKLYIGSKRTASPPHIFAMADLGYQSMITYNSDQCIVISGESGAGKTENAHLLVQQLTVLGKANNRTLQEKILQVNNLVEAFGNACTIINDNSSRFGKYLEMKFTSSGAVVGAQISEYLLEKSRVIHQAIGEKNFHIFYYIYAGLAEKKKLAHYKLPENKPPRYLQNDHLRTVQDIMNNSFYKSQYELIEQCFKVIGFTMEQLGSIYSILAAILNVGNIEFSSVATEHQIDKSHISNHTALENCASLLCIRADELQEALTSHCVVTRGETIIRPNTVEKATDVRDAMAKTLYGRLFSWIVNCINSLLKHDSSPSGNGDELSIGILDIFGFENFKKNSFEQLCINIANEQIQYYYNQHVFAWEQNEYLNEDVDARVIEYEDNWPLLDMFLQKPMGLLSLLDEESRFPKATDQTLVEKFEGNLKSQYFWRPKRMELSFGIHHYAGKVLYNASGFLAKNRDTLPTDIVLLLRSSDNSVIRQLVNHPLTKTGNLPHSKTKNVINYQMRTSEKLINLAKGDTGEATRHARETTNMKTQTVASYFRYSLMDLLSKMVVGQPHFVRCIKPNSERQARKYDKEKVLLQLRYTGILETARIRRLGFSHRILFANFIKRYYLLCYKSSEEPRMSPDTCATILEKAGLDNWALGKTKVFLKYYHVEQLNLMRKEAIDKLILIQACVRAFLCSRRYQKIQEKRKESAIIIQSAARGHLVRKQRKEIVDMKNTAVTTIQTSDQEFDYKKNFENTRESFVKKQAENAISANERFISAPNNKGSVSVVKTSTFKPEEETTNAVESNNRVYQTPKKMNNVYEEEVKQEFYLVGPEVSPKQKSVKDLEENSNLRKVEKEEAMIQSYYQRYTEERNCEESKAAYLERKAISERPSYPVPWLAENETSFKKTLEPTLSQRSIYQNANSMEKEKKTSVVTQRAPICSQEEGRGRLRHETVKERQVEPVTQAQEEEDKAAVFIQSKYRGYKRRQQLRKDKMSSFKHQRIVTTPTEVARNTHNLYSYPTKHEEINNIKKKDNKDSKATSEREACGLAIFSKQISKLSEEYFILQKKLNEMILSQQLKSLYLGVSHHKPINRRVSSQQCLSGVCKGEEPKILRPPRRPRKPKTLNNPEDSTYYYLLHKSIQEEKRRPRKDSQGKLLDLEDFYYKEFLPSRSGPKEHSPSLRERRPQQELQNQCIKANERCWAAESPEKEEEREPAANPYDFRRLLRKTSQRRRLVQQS
Sequence of MAPKAPK2 (P49137 whole entry): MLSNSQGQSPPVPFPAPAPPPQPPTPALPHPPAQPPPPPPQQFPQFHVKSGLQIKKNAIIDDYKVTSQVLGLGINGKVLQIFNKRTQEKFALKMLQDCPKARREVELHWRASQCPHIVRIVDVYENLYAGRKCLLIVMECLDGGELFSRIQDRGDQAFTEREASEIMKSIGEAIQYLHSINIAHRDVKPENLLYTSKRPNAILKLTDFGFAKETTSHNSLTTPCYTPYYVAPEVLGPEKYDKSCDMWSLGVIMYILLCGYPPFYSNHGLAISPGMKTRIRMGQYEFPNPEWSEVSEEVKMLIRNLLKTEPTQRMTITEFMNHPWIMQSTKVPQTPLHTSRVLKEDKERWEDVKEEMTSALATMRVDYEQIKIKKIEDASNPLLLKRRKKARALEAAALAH
Sequence of CSK (P41240 whole entry): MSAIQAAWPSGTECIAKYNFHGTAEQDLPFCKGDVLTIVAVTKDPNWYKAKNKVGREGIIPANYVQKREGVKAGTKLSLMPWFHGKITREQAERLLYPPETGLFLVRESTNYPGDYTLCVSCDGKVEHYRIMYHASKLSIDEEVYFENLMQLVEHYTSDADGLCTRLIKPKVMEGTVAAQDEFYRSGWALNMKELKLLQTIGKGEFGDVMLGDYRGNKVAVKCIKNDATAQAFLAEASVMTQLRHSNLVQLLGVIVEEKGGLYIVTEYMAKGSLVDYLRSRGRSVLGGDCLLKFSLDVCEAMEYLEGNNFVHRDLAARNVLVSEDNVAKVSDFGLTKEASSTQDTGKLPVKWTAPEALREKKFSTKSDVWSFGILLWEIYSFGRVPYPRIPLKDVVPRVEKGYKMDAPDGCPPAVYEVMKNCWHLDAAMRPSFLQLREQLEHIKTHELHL

Regarding `COc1cc(-c2cncc(-c3ccc(N4CCN(C)CC4)cc3)c2C)cc(F)c1C(N)=O` [Compound 26a, 2-Fluoro-6-methoxy-4-(4-methyl-5-(4-(4-methylpiperazin-1-yl)phenyl)pyridin-3-yl)benzamide], the remaining activity at 1 µM came to 103% on MAPKAPK2, 102% at PKG1b, 92.3% on NEK2 and 108% at LCK2/ICK. Besides, the “% enzyme activity” value on EPHA5 is given as 90.37%; at LYN, 79.23%; at CSK, 99.36%; at MYO3A, 81.86%; at PHKg1 it was 82.79%; on c-MET, 98.28%. Also, on TBK1, the “% enzyme activity” value stood at 92.56%.

Turning to `COc1cc(-c2cncc(-c3ccc(N4C[C@@H](C)N(C)[C@@H](C)C4)cc3)c2C)cc(F)c1C(N)=O` [Compound 26c, 2-Fluoro-6-methoxy-4-(4-methyl-5-(4-((3R,5S)-3,4,5-trimethylpiperazin-1-yl)phenyl)pyridin-3-yl)benzamide], the remaining activity at 1 µM at MAPKAPK2 came out at 95.4%; on PKG1b, 98.8%; on NEK2, 98.5%; on LCK2/ICK, 97.5%. Moreover, the “% enzyme activity” value is recorded as 90.66% at EPHA5; 88.67% at LYN; 102.04% at CSK; 94.68% on MYO3A; 95.24% at PHKg1; 106.76% at c-MET. Moreover, the “% enzyme activity” value on TBK1 was found to be 85.62%.
